The nature of series [1]: Solubility of ezutromid Form I polymorph in pharmaceutically-acceptable solvents at 20° C. (HPLC of saturated solutions). The class given is physicochemical. The settings on record: 1-propanol; 4 hours equilibration. As for the experimental part:
In each case, about 25 mg of drug substance was allowed to equilibrate with 250 μL of solvent over 4 hours. The resulting saturated solutions were filtered and analysed by HPLC.

The nature of series [2]: Gravimetric vapour sorption analysis. In kind it is physicochemical. The text has this:
Form I was subjected to gravimetric vapour sorption analysis, ramping profile from 0 to 90% RH at 10% RH increments.

A further series relates to mouse models of DMD. The settings on record: with corticosteroids including prednisone, prednisolone and deflazacort; WO2009/019504; cited from earlier work.

Converted amounts (≈) assume the structure as drawn.

For `CCS(=O)(=O)c1ccc2oc(-c3ccc4ccccc4c3)nc2c1` [ezutromid, 5-(ethylsulfonyl)-2-(naphthalen-2-yl)benzo[d]oxazole], the “Solubility at 20° C.” value in series [1] came out at 790 µg/mL (≈ 2340 µM). Besides, the Hygroscopicity result in series [2] (based on gravimetric vapour sorption) was “not hygroscopic”. For the same compound, the Moisture absorbed result in series [2] (up to 90% RH, 0 to 90% RH at 10% RH increments) is listed as “no more than 0.25 % by weight”. For the same compound, in the series with mouse models of DMD, the “Reduction of exercise-induced fatigue with corticosteroids” value is “acts in synergy with corticosteroids”.
